# According to patent EP0226508A1, “Indolo[3,2-c]quinoline derivatives, process for their preparation and their anti-tumour activity” (priority 1985, dated 1987):
# Where “and” joins values, the source holds several entries; their conditions need not be identical. Equal entries are not always repeated.
# Tests used:
# leucémie P 388 = experiment: animal or person; format: in vivo, souris hybrides CDF 1; conditions: for Nombre de survivants: survivors at J 40; for Variation pondérale en g: in vivo, ip
# Text: (§1) L'activité antitumorale a été testée in vivo sur différentes tumeurs selon le protocole général suivant:
# (§2) Toutes les souris mâles ou femelles sont inoculées par voie intrapéritonéale au jour Jo avec une quantité déterminée de cellules tumorales viables, variable selon la tumeur.
# (§3) Elles sont ensuite réparties en différents lots. Chaque lot correspondant aux animaux traités par le produit à tester à une dose déterminée est composé de 10 souris. Dans ce cas, le produit à tester est dissous dans l'eau distillée et il est administré, pendant n jours (J₁-Jn) variables selon le protocole choisi, par voie intrapéritonéale à raison de 0,1 ml par 10 g de poids des souris traitées, les doses du produit administré étant précisées dans les tableaux ci-dessous.
# (§4) Le lot "contrôle négatif", correspondant aux animaux qui ne sont pas traités par un produit, comprend 2 √N animaux, N étant égal au nombre total de souris traitées par un produit.
# (§5) Enfin, tous les essais sont conduits parallèlement à l'étude d'un lot appelé "contrôle positif" de 10 animaux qui est traité par une molécule active, variable selon le protocole choisi, dans les mêmes conditions que les lots traités par le produit à tester, afin de valider l'essai.
# (§6) L'activité antitumorale est évaluée en considé-rant l'augmentation du temps de survie des animaux traités par rapport à celui des animaux du lot "contrôle négatif" selon la formule : [formula]
# (§7) Un composé est considéré comme étant actif lorsque la valeur du rapport T/C est égale ou supérieure à 125 % selon le protocole retenu. Il est toxique lorsque cette valeur est égale ou inférieure à 85 %. Le produit est également considéré comme toxique lorsque la variation pondérale, exprimée en grammes et calculée par la formule : Poids moyen du lot mesuré au jour 5 -poids moyen du même lot au jour 1 est égale ou inférieure à - 4 g.
# a) Test de la leucémie P 388 (GERAN et al., Cancer Chemother, 1972, 2, 07-57).
# Les essais sont effectués avec des souris hybrides CDF 1 inoculées par voie intrapéritonéale avec 10⁶ cellules leucémiques de la lignée P 388. Le composé à tester est administré pendant 5 jours (J1-J5). Le contrôle positif du test est le 5-fluorouracile qui est administré dans les mêmes conditions. Le nombre d'animaux survivants est évalué au jour J 40. Un composé est considéré comme étant actif lorsque le rapport T/C est supérieur à 127 %.
# leucémie L 1210 = experiment: In vivo antitumour activity, L 1210 leukemia test; parameters: species or system souris hybrides CDF₁; conditions: for Nombre de survivants: survivors at J 30
# Text: as §1, §2, §3, §4, §5, §6, §7
# b) Test de la leucémie L 1210 (GERAN et al., Cancer Chemother, 1972, 2, 07-57).
# Les essais sont effectués avec des souris hybrides CDF₁ inoculées avec 10⁵ cellules leucémiques de la lignée L 1210. Le composé à tester est administré pendant 5 jours (J₁-J₅).Le contrôle positif du test est le 5-fluorouracile administré dans les mêmes conditions. Le nombre d'animaux survivants est évalué au jour J 30. Un composé est considéré comme étant actif lorsque le rapport T/C est supérieur ou égal à 125 %.
# mélanome B 16 = experiment: In vivo antitumour activity, B 16 melanoma test; parameters: species or system souris hybrides BDF₁; conditions: B 16 melanoma, BDF₁ mice, 1 mg/kg i.p. J1-J9
# Text: as §1, §2, §3, §4, §5, §6
# Le produit est également considéré comme toxique lorsque la variation pondérale, exprimée en grammes et calculée par la formule : Poids moyen du lot mesuré au jour 5 -poids moyen du même lot au jour 1 est égale ou inférieure à - 4 g.
# Les essais sont effectués avec des souris hybrides BDF₁ inoculées avec 0,5 ml d'un homogénat de mélanome B 16 réalisé à partir de 1 g de tumeur dans 10 ml de sérum physiologique. Le composé à tester est administré pendant 9 jours (J₁-J₉).Le contrôle positif du test est le Cis-Platine administré dans les mêmes conditions. Le nombre d'animaux survivants est évalué au jour J 60.
# [1] = system: souris consanguines DBA₂ saines; experiment: Acute toxicity, single intraperitoneal injection in healthy mice, mortality at day 7; format: in vivo; conditions: single i.p. injection, 50 mg/kg
# [2] = system: lignée tumorale leucémie L 1210; experiment: In vitro cytotoxic activity on L 1210 leukemia cell culture (inhibition of cell proliferation); format: cell-based; conditions: Mus musculus, L1210; L 1210 culture in exponential growth, 37°C, after 48 hours of contact; read-out: ID 50 (the source's name)
# Experimental: 1) In vitro : (PAOLETTI et al., Chem. Biol. Interaction, 1979, 25, 45-58).
# L'activité cytotoxique des composés de l'invention a été évaluée par des essais in vitro. Ces essais consistent à ajouter des concentrations croissantes du composé à tester à une culture cellulaire de la lignée tumorale leucémie L 1210 en phase exponentielle de croissance. Les cellules sont incubées à 37°C dans une étuve à CO₂ et comptées toutes les 24 heures. Le calcul de l'ID₅₀ (concentration du produit exprimée en micromole 1⁻¹ qui inhibe la prolifération cellulaire à 50 p. 100) est effectuée après 48 heures de contact. Ainsi déterminées les ID₅₀ des composés de l'invention sont rassemblées dans le tableau ci-après.
# [3] = P 388, CDF 1 mice, 20 mg/kg i.p. J1-J5
# [4] = L 1210, CDF₁ mice, 20 mg/kg i.p. J1-J5, 20 mg/kg
# [5] = L 1210, CDF₁ mice, 20 mg/kg i.p. J1-J5, listed as 5 Fluoro-uracile, 20 mg/kg
# [6] = L 1210, CDF₁ mice, 20 mg/kg i.p. J1-J5
# [7] = Mus musculus, P388, ip, P 388, CDF 1 mice, 5 mg/kg i.p. J1-J5, read-out: T/C %
# [8] = Mus musculus, P388, ip, P 388, CDF 1 mice, 10 mg/kg i.p. J1-J5, read-out: T/C %
# [9] = Mus musculus, P388, ip, P 388, CDF 1 mice, 20 mg/kg i.p. J1-J5, read-out: T/C %
# [10] = P 388, CDF 1 mice, 5 mg/kg i.p. J1-J5
# [11] = P 388, CDF 1 mice, 10 mg/kg i.p. J1-J5
# [12] = Mus musculus, P388, ip, P 388, CDF 1 mice, 40 mg/kg i.p. J1-J5, read-out: T/C %
# [13] = P 388, CDF 1 mice, 40 mg/kg i.p. J1-J5
# [14] = L 1210, CDF₁ mice, 5 mg/kg i.p. J1-J5
# [15] = L 1210, CDF₁ mice, 10 mg/kg i.p. J1-J5
# [16] = L 1210, CDF₁ mice, 2,5 mg/kg i.p. J1-J5
smiles,measurement,setting,value
"O=c1[nH]cc(F)c(=O)[nH]1 [5 - Fluoro-uracile, 5-fluorouracile, reference compound]",Nombre de survivants,leucémie P 388; [3],0
same,Jour médian de survie,leucémie L 1210; [4],"15,7 and 14,5"
same,T/C %,leucémie L 1210; [4],191% and 183%
same,Jour médian de survie,leucémie L 1210; [5],"15,5"
same,T/C %,leucémie L 1210; [5],174%
same,Nombre de survivants,leucémie L 1210; [6],0
"[NH2][Pt]([NH2])([Cl])[Cl] [Cis-Platine, reference compound]",Jour médian de survie,mélanome B 16; 1 mg/kg,39 and 37
same,T/C %,mélanome B 16; 1 mg/kg,140% and 142% and 157%
same,Nombre de survivants,mélanome B 16; survivors at J 60,0
"CCN(CC)CCCNc1nc2ccccc2c2c1c1cc(OC)ccc1n2C [Dérivé N°1, (diéthylamino-3 propylamino)-6 méthoxy-8 méthyl-11 11-H indolo[3,2-c]quinoléine]",mortalité évaluée au septième jour après l'administration,[1],aucune mortalité
same,IC50,[2],350 nM
same,response vs control in vivo at 5 mg/kg,leucémie P 388; [7],142%
same,response vs control in vivo at 10 mg/kg,leucémie P 388; [8],154%
same,response vs control in vivo at 20 mg/kg,leucémie P 388; [9],142%
same,Nombre de survivants,leucémie P 388; [10],0
same,Nombre de survivants,leucémie P 388; [11],0
same,Nombre de survivants,leucémie P 388; [3],0
same,Variation pondérale en g,leucémie P 388; 5 mg/kg,"- 0,4 g"
same,Variation pondérale en g,leucémie P 388; 10 mg/kg,"- 0,7 g"
same,Variation pondérale en g,leucémie P 388; 20 mg/kg,"- 1,2 g"
"COc1ccc2c(c1)c1c(NCCCN(C)C)nc3ccccc3c1n2C [Dérivé N°2, (diméthylamino-3 propylamino)-6 méthoxy-8 méthyl-11 11-H indolo[3,2-c]quinoléine]",IC50,[2],400 nM
"CN(C)CCCNc1nc2ccccc2c2c1c1cc(O)ccc1n2C [Dérivé N°4, (diméthylamino-3 propylamino)-6 hydroxy-8 méthyl-11 11-H indolo[3,2-c]quinoléine]",IC50,[2],40 nM
same,response vs control in vivo at 5 mg/kg,leucémie P 388; [7],133%
same,response vs control in vivo at 10 mg/kg,leucémie P 388; [8],136%
same,response vs control in vivo at 20 mg/kg,leucémie P 388; [9],137%
same,response vs control in vivo at 40 mg/kg,leucémie P 388; [12],65%
same,response vs control in vivo at 2.5 mg/kg,"leucémie P 388; Mus musculus, P388, ip, P 388, CDF 1 mice, 2,5 mg/kg i.p. J1-J5, read-out: T/C %",129%
same,Nombre de survivants,leucémie P 388; [10],0
same,Nombre de survivants,leucémie P 388; [11],0
same,Nombre de survivants,leucémie P 388; [3],0
same,Nombre de survivants,leucémie P 388; [13],0
same,Nombre de survivants,"leucémie P 388; P 388, CDF 1 mice, 2,5 mg/kg i.p. J1-J5",0
same,Variation pondérale en g,leucémie P 388; 5 mg/kg,"+ 2,3 g"
same,Variation pondérale en g,leucémie P 388; 10 mg/kg,"+ 1,3 g"
same,Variation pondérale en g,leucémie P 388; 20 mg/kg,"+ 1,1 g"
same,Variation pondérale en g,leucémie P 388; 40 mg/kg,"+ 3,8 g"
same,Jour médian de survie,leucémie L 1210; [14],"13,0"
same,T/C %,leucémie L 1210; [14],158%
same,Nombre de survivants,leucémie L 1210; [14],0
same,Jour médian de survie,leucémie L 1210; [15],"11,25"
same,T/C %,leucémie L 1210; [15],137%
same,Nombre de survivants,leucémie L 1210; [15],0
same,Jour médian de survie,leucémie L 1210; [6],"10,1"
same,T/C %,leucémie L 1210; [6],123%
same,Nombre de survivants,leucémie L 1210; [6],0
same,Jour médian de survie,leucémie L 1210; [16],"10,3"
same,T/C %,leucémie L 1210; [16],126%
same,Nombre de survivants,leucémie L 1210; [16],0
"CCN(CC)CCCNc1nc2ccccc2c2[nH]c3ccc(OC)cc3c12 [Dérivé N°5, (diéthylamino-3 propylamino)-6 méthoxy-8 11-H indolo[3,2-c]quinoléine]",mortalité évaluée au septième jour après l'administration,[1],aucune mortalité
same,IC50,[2],690 nM
same,response vs control in vivo at 10 mg/kg,leucémie P 388; [8],128%
same,response vs control in vivo at 20 mg/kg,leucémie P 388; [9],124%
same,response vs control in vivo at 40 mg/kg,leucémie P 388; [12],80%
same,Nombre de survivants,leucémie P 388; [11],0
same,Nombre de survivants,leucémie P 388; [3],0
same,Nombre de survivants,leucémie P 388; [13],0
same,Variation pondérale en g,leucémie P 388; 10 mg/kg,"- 0,6 g"
same,Variation pondérale en g,leucémie P 388; 20 mg/kg,"+ 0,8 g"
same,Variation pondérale en g,leucémie P 388; 40 mg/kg,"- 2,1 g"
"COc1ccc2[nH]c3c4ccccc4nc(NCCCN(C)C)c3c2c1 [Dérivé N°6, (diméthylamino-3 propylamino)-6 méthoxy-8 11-H indolo [3,2-c]quinoléine]",IC50,[2],800 nM
"CCN(CC)CCNc1nc2ccccc2c2[nH]c3ccc(OC)cc3c12 [Dérivé N°7, (diéthylamino-2 éthylamino)-6 méthoxy-8 11-H indolo[3,2-c]quinoléine]",IC50,[2],2100 nM
"COc1ccc2[nH]c3c4ccccc4nc(NCCCN4CCOCC4)c3c2c1 [Dérivé N°8, méthoxy-8 (morpholino-3 propylamino)-6 11-H indolo[3,2-c]quinoléine]",IC50,[2],610 nM
"COc1ccc2[nH]c3c4ccccc4nc(NCCCN4CCCCC4)c3c2c1 [Dérivé N°9, méthoxy-8 (pipéridino-3 propylamino)-6 11-H indolo [3,2-c]quinoléine]",IC50,[2],640 nM
"CCNCCCNc1nc2ccccc2c2[nH]c3ccc(OC)cc3c12 [Dérivé N°10, (éthylamino-3 propylamino)-6 méthoxy-8 11-H indolo [3,2-c]quinoléine]",IC50,[2],580 nM
"CCN(CC)CCNc1nc2ccccc2c2[nH]c3ccc(O)cc3c12 [Dérivé N°13, (diéthylamino-2 éthylamino)-6 hydroxy-8 11-H indolo[3,2-c]quinoléine]",IC50,[2],2600 nM
